Columns and labels:
AKR1B1 [1] = tested on: AKR1B1; design: method as in earlier work; details: glyceraldehyde as substrate; cited from earlier work
AKR1B10 [2] = target: T1, AKR1B10 (Homo sapiens, UniProt O60218); assay: AKR1B10-catalysed glyceraldehyde (GA) reduction, NADPH absorbance decrease at 340 nm; assay type: biochemical; details: GA at KM 4 mM, mean ± SD; for IC50: 200 μM NADPH, pH 7.4, 37 °C, at least three experiments; for Ki: Morrison equation for tight-binding inhibitors
T1 construct: 6xHis; made in house; host or cells: E. coli BL21 (DE3)
Method: (§1) The recombinant enzymes AKR1A1, AKR1B1 and AKR1B10 were prepared in an Escherichia coli expression system according to previously published methods: AKR1A1 was a gentle gift from Prof. Dr. Vladimir Wsol[63]; AKR1B1 was a friendly gift from Dr. Nina Kassner; information about production and purification of AKR1B10 has been published before. Genetic information on the specific inserts of all obtained plasmids was verified by sequencing (MWG Eurofins). The plasmids were then transformed into E. coli BL21 (DE3) cells. For over-expression of 6 × His-tagged enzymes, a 400-ml culture (containing the appropriate antibiotic; plasmid dependent) was grown to an optical density of 0.6 at 600 nm at 37 °C. Protein over-expression was induced by adding isopropyl-1-thio-galactopyranoside (IPTG) to the culture medium (final concentration of 1 mM). After 3 h, cells were harvested by centrifugation (6000 g, 15 min) and re-suspended in 20 ml PBS-I buffer (20 mM NaH2PO4, 500 mM NaCl, 10 mM imidazole, pH 7.4). Cell disruption was performed by ultrasonication with cooling on ice, to avoid heating. The sample was subsequently centrifuged at 100,000 g at 4 °C for 1 h. The obtained supernatants, containing the target protein were purified using Ni-affinity chromatography on an ÄKTA-Purifier System (Amersham Pharmacia Biotech, Uppsala, Sweden). Purification progress was monitored by SDS-PAGE of the obtained fractions (not shown). Enzyme concentrations were determined using a Qubit 2.0 fluorometric quantitation system (Life Technologies, Carlsbad, CA, USA) according to the manufacturer’s instructions.
(§2) Catalytic properties were determined by measuring the decrease in absorbance at 340 nm at 37 °C (Cary 100 scan photometer, Varian, Pal Alto, CA, USA). A reaction mixture without inhibitor consisted of different concentrations of substrate (see Table 1 for details), 200 μM NADPH, 0.1 M NaH2PO4 buffer (pH 7.4) and an appropriate amount of enzyme in a total assay volume of 0.8 ml. Final enzyme concentrations in the assay ranged from 583 nM (AKR1B10) to 712 nM (AKR1B1). For inhibitor selectivity studies on AKR1A1, AKR1B1 and AKR1B10 stock solutions of the inhibitors XN, XI and 8-PN were prepared in dimethyl sulfoxide (DMSO). The final concentration of DMSO in the assay was ≤0.5%. Activity measurements were started without pre-incubation by adding an appropriate amount of enzyme. When collecting data for dose–response curves, initial velocities of the glyceraldehyde reduction (concentration at KM; enzyme specific) in the presence of inhibitors were assayed as described above. The percentage of inhibition was calculated considering the activity in the absence of inhibitor to be 100%.
(§3) Initially, the half maximal inhibitory concentrations (IC50 values) were determined for each inhibitor in the presence of each enzyme, using the shared substrate glyceraldehyde (set to their specific Km; 3.6 mM, 50 µM and 4 mM for AKR1A1, AKR1B1 and AKR1B10, respectively) to assess specificity among the structurally similar members of the AKR-superfamily. For IC50 determination, experimental data were normalised and fitted to a sigmoidal curve as implemented in GraphPad6 (GraphPad Software Inc., La Jolla, CA, USA). Whenever tight-binding inhibition was observed, the inhibition constant Ki was determined by fitting inhibition data to the Morrison equation as implemented in GraphPad Prism6 (GraphPad Software Inc., La Jolla, CA, USA)[65], using non-linear regression.

AKR1A1 = target: T2, AKR1A1 (Homo sapiens, UniProt P14550); assay: AKR1A1-catalysed glyceraldehyde reduction (inhibitor selectivity); assay type: biochemical
T2 construct: 6xHis; made in house; host or cells: E. coli BL21 (DE3)
T2 sequence (P14550 1-325): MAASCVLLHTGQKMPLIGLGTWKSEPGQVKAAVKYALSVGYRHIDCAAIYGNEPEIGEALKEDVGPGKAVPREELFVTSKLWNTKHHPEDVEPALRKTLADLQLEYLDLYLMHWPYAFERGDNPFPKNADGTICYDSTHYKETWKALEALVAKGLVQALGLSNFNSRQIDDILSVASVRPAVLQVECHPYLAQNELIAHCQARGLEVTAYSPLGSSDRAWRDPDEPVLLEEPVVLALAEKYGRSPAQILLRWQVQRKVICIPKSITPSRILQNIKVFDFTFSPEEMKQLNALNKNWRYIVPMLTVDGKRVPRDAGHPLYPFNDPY
Method: as §1
Catalytic properties were determined by measuring the decrease in absorbance at 340 nm at 37 °C (Cary 100 scan photometer, Varian, Pal Alto, CA, USA). A reaction mixture without inhibitor consisted of different concentrations of substrate (see Table 1 for details), 200 μM NADPH, 0.1 M NaH2PO4 buffer (pH 7.4) and an appropriate amount of enzyme in a total assay volume of 0.8 ml. […] The percentage of inhibition was calculated considering the activity in the absence of inhibitor to be 100%. […]

AKR1B1 [3] = target: T3, AKR1B1 (Homo sapiens, UniProt P15121); assay: AKR1B1-catalysed glyceraldehyde (GA) reduction, NADPH absorbance decrease at 340 nm; assay type: biochemical; details: for IC50 / Ki: GA at KM 50 μM, mean ± SD; for IC50: 200 μM NADPH, pH 7.4, 37 °C, at least three experiments; for Ki: Morrison equation for tight-binding inhibitors; for mode of inhibition with respect to the co-factor binding site for NADPH: glyceraldehyde reduction, IC50 as a function of NADPH concentration
T3 construct: 6xHis; made in house; host or cells: E. coli BL21 (DE3)
Method: as §1
as §2, with “A reaction mixture without inhibitor consisted of different concentrations of substrate (see Table 1 for details), 200 μM NADPH, 0.1 M NaH2PO4 buffer (pH 7.4) and an appropriate amount of enzyme in a total assay volume of 0.8 ml.” left out
as §3

AKR1B10 [4] = target: T1, AKR1B10; assay: AKR1B10-catalysed farnesal reduction (physiological substrate); assay type: biochemical; details: for Ki / IC50: farnesal at KM 5 μM, mean ± SD; for Ki: Morrison equation; for IC50: at least three experiments; for mode of inhibition: with respect to the substrate farnesal, IC50 at five substrate concentrations
Method: as §2, §3
(§4) In order to verify the inhibitory potency, enzyme-specific physiological substrates for AKR1B1 (glucose, KM = 32 mM) and AKR1B10 (farnesal; KM = 5 µM) were used to determine inhibition parameters. Enzyme inhibition parameters were assayed as described above. The inhibition mechanism of each compound for the respective enzymes was analysed by plotting IC50 values at different substrate concentrations (at least five inhibitor and substrate concentrations)[65]^,[66]. All data obtained were plotted and analysed using GraphPad Prism6 (GraphPad Software Inc., La Jolla, CA, USA).

AKR1B1 [5] = target: T3, AKR1B1; assay: AKR1B1-catalysed glucose reduction (physiological substrate); assay type: biochemical; details: for Ki / IC50: glucose at KM 32 mM, mean ± SD; for Ki: Morrison equation; for IC50: at least three experiments; for mode of inhibition: with respect to the substrate glucose, IC50 at five substrate concentrations
Method: as §2, §3, §4

AKR1B10 [6] = tested on: AKR1B10; design: method as in PMID 26844556, PMID 27359042, PMID 28003428, PMID 26968129, PMID 21561086; details: selective inhibitors identified so far; cited from earlier work

T1 sequence (O60218 whole entry): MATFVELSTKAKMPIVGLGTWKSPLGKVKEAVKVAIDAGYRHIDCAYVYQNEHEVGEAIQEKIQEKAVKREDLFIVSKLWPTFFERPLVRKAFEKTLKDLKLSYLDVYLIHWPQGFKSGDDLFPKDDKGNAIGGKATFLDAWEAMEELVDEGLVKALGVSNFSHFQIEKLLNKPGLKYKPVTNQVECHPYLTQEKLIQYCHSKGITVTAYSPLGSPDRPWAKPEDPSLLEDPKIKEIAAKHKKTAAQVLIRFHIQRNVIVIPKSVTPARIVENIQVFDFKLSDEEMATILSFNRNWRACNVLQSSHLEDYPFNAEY

Row | SMILES | IC50 (AKR1B1 [1]) [nM] | IC50 (AKR1B10 [2]) [nM] | Ki (AKR1B10 [2]) [nM] | effect on the activity of AKR1A1 (AKR1A1) | IC50 (AKR1B1 [3]) [µM] | Ki (AKR1B1 [3]) [µM] | mode of inhibition with respect to the co-factor binding site for NADPH (AKR1B1 [3]) | inhibitory potency, times greater as compared to that of 6-PN (AKR1B1 [3]; ratio of AKR1B1 IC50 values, glyceraldehyde as substrate) [times] | Ki (AKR1B10 [4]) [nM] | IC50 (AKR1B10 [4]) [nM] | mode of inhibition (AKR1B10 [4]) | Ki (AKR1B1 [5]) [nM] | IC50 (AKR1B1 [5]) [nM] | mode of inhibition (AKR1B1 [5]) | IC50 (AKR1B10 [6]) [nM]
1 | CC(C)=CCc1c(O)cc2c(c1O)C(=O)C[C@@H](c1ccc(O)cc1)O2 [6-PN, 6-prenylnaringenin] | 6200 | – | – | – | – | – | – | – | – | – | – | – | – | – | –
2 | CC(C)=CCc1c(O)cc(O)c2c1O[C@H](c1ccc(O)cc1)CC2=O [8-PN, 8-prenylnaringenin] | – | 990 ± 40 | 520 ± 50 | not affecting | 0.81 ± 0.03 | 0.3 ± 0.03 | non-competitive | 7.6 | 1950 ± 120 | 3960 ± 170 | uncompetitive | 710 ± 90 | 1870 ± 90 | uncompetitive | –
3 | C[C@@]12CCC[C@H]1[C@@H]1C[C@@H](O)[C@@]3(O)C[C@@H](O)CC[C@]3(CO)[C@H]1CC2 [Androst-3β,5α,6β,19-tetrol] | – | – | – | – | – | – | – | – | – | – | – | – | – | – | 860
4 | COc1cc(O)c(CC=C(C)C)c2c1C(=O)CC(c1ccc(O)cc1)O2 (stereo not shown) [IX, isoxanthohumol] | – | 1090 ± 60 | 520 ± 50 | not affecting | 0.57 ± 0.02 | 0.17 ± 0.02 | uncompetitive | – | 2250 ± 240 | 4240 ± 230 | uncompetitive | 340 ± 60 | 880 ± 50 | uncompetitive | –
5 | COc1cc(O)c(CC=C(C)C)c(O)c1C(=O)/C=C/c1ccc(O)cc1 [XN, xanthohumol] | – | 6560 ± 690 | 4560 ± 980 | not affecting | 9.11 ± 1.02 | 5.29 ± 0.95 | non-competitive | – | 20100 ± 3730 | 41400 ± 6860 | uncompetitive | 15100 ± 1650 | 29200 ± 2300 | uncompetitive | –
6 | CC1(C)CC[C@]2(C(=O)O)CC[C@]3(C)C(=CC[C@@H]4[C@@]5(C)CC[C@H](O)C(C)(C)[C@@H]5CC[C@]43C)[C@@H]2C1 [oleanolic acid] | – | – | – | – | – | – | – | – | – | – | – | – | – | – | 90
